Laboratory results from PubChem BioAssay (NCI).
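The compound was tested at five concentrations on cells cultured in 96-well plates, with a 48-hour exposure period. TGI is the concentration that stops growth completely.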

Legend:
Assay in all cases: inhibition of tumour cell growth, NCI panel, 48 h
HOP-92 NSCLC = test system: HOP-92 NSCLC
UACC-62 melanoma = test system: UACC-62 melanoma
MDA-MB-435 = test system: MDA-MB-435
SK-MEL-28 melanoma = test system: SK-MEL-28 melanoma
SK-MEL-2 melanoma = test system: SK-MEL-2 melanoma
MCF7 breast = test system: MCF7 breast
U251 CNS = test system: U251 CNS
MDA-N = test system: MDA-N
SR leukemia = test system: SR leukemia
T-47D breast = test system: T-47D breast
SN12C renal = test system: SN12C renal
COLO 205 colon = test system: COLO 205 colon
CCRF-CEM leukemia = test system: CCRF-CEM leukemia
NCI-H522 lung = test system: NCI-H522 lung
A549 NSCLC = test system: A549 NSCLC
HCT-15 colon = test system: HCT-15 colon
KM12 colon = test system: KM12 colon
SW-620 colon = test system: SW-620 colon
ACHN renal = test system: ACHN renal
MDA-MB-231 breast = test system: MDA-MB-231 breast
K-562 leukemia = test system: K-562 leukemia
PC-3 prostate = test system: PC-3 prostate
HOP-62 NSCLC = test system: HOP-62 NSCLC
BT-549 breast = test system: BT-549 breast
OVCAR-4 ovarian = test system: OVCAR-4 ovarian
TK-10 renal = test system: TK-10 renal
NCI-H226 lung = test system: NCI-H226 lung
SNB-75 CNS = test system: SNB-75 CNS
OVCAR-3 ovarian = test system: OVCAR-3 ovarian
IGROV1 ovarian = test system: IGROV1 ovarian
DU-145 prostate = test system: DU-145 prostate
SF-295 CNS = test system: SF-295 CNS
M14 melanoma = test system: M14 melanoma
SF-539 CNS = test system: SF-539 CNS
MOLT-4 leukemia = test system: MOLT-4 leukemia
786-0 renal = test system: 786-0 renal
NCI-H23 lung = test system: NCI-H23 lung
OVCAR-5 ovarian = test system: OVCAR-5 ovarian
UO-31 renal = test system: UO-31 renal
RPMI-8226 leukemia = test system: RPMI-8226 leukemia
HS 578T breast = test system: HS 578T breast
CAKI-1 renal = test system: CAKI-1 renal
NCI-H460 lung = test system: NCI-H460 lung
NCI/ADR-RES ovarian = test system: NCI/ADR-RES ovarian
UACC-257 melanoma = test system: UACC-257 melanoma
OVCAR-8 ovarian = test system: OVCAR-8 ovarian
SK-OV-3 ovarian = test system: SK-OV-3 ovarian
HCC-2998 colon = test system: HCC-2998 colon
A498 renal = test system: A498 renal
HCT-116 colon = test system: HCT-116 colon
SNB-19 CNS = test system: SNB-19 CNS
EKVX NSCLC = test system: EKVX NSCLC
RXF 393 renal = test system: RXF 393 renal
SK-MEL-5 melanoma = test system: SK-MEL-5 melanoma
HT29 colon = test system: HT29 colon
SF-268 CNS = test system: SF-268 CNS
DMS 114 small cell lung = test system: DMS 114 small cell lung
LXFL 529 NSCLC = test system: LXFL 529 NSCLC
M19-MEL melanoma = test system: M19-MEL melanoma
SNB-78 CNS = test system: SNB-78 CNS
HOP-18 NSCLC = test system: HOP-18 NSCLC
DMS 273 small cell lung = test system: DMS 273 small cell lung
DLD-1 colon = test system: DLD-1 colon
MALME-3M melanoma = test system: MALME-3M melanoma
LOX IMVI melanoma = test system: LOX IMVI melanoma
XF 498 CNS = test system: XF 498 CNS
KM20L2 colon = test system: KM20L2 colon
HL-60(TB) leukemia = test system: HL-60(TB) leukemia

Measured: TGI

N#CCCN(CCC#N)c1ccc(C(N=Nc2ccccc2)=Nc2ccccc2)cc1
not listed: DMS 114 small cell lung | LXFL 529 NSCLC | M19-MEL melanoma | SNB-78 CNS | HOP-18 NSCLC | DMS 273 small cell lung | DLD-1 colon | MALME-3M melanoma | LOX IMVI melanoma | XF 498 CNS | KM20L2 colon | HL-60(TB) leukemia
> 100 µM: all other assays above

CC(=O)Oc1cc(OC(C)=O)c2c(=O)c3ccccc3[nH]c2c1
88.9 µM: NCI-H226 lung
85.1 µM: UACC-257 melanoma
67.9 µM: MALME-3M melanoma
92.8 µM: SNB-75 CNS
47.1 µM: SF-539 CNS
51.9 µM: XF 498 CNS
81.1 µM: IGROV1 ovarian
49.5 µM: SK-OV-3 ovarian
86.9 µM: M19-MEL melanoma
41.6 µM: UO-31 renal
51.2 µM: HOP-18 NSCLC
> 100 µM: UACC-62 melanoma | SK-MEL-28 melanoma | SK-MEL-2 melanoma | DMS 114 small cell lung | LXFL 529 NSCLC | SNB-78 CNS | SN12C renal | A549 NSCLC | HCT-15 colon | KM12 colon | ACHN renal | OVCAR-4 ovarian | TK-10 renal | DMS 273 small cell lung | SF-295 CNS | DLD-1 colon | MOLT-4 leukemia | NCI-H23 lung | LOX IMVI melanoma | NCI-H460 lung | OVCAR-8 ovarian | HCT-116 colon | SNB-19 CNS | RXF 393 renal | HT29 colon | SF-268 CNS
39.1 µM: SK-MEL-5 melanoma
76.6 µM: NCI-H522 lung
83.7 µM: OVCAR-3 ovarian

CCOC(=O)C(=O)Nc1c(F)cc(F)cc1Br
not listed: MDA-MB-435 | MCF7 breast | MDA-N | T-47D breast | NCI-H522 lung | MDA-MB-231 breast | PC-3 prostate | BT-549 breast | DU-145 prostate | HS 578T breast | NCI/ADR-RES ovarian | HOP-18 NSCLC | DMS 273 small cell lung
> 100 µM: all other assays above

CC/C=C1\N=C(c2ccc(Cl)cc2)OC1=O
not listed: MDA-MB-435 | MCF7 breast | U251 CNS | MDA-N | SR leukemia | T-47D breast | MDA-MB-231 breast | PC-3 prostate | BT-549 breast | DU-145 prostate | HS 578T breast | NCI/ADR-RES ovarian | HCT-116 colon | SK-MEL-5 melanoma | HOP-18 NSCLC
> 100 µM: all other assays above
